{"source": "patent US6958151B2", "about": "(priority 2002, dated 2005)", "key": {"[1]": {"conditions": "iv via tail vein, five consecutive days, 16.7 μg/day, 10-day observation"}, "POW virus": {"tested_on": "POW virus", "parameters": "species or system NIH Swiss mice", "conditions": "mouse, in vivo"}, "WN-E-D3": {"target": "WN-E-D3 (West Nile virus, UniProt Q9Q6P4)", "assay_type": "binding"}}}
{"sequence": "RCCHPQCKEGKKCR (SEQ ID NO:157) [MP-100]", "values": [{"measurement": "toxicity to mice", "setting": "[1]", "result": "neither of the agents is toxic"}, {"measurement": "chance for survival", "setting": "POW virus", "result": "increases their chance for survival"}, {"measurement": "onset of disease / illness", "setting": "POW virus", "result": "delay in onset of disease"}]}
{"sequence": "RCCVSVCKEGKKCR [MP-107]", "values": [{"measurement": "selected by binding (phage display)", "setting": "WN-E-D3", "result": "selected by binding to WN-E-D3"}]}
{"sequence": "RCCTLRCKEGKKCR [MP-108]", "values": [{"measurement": "selected by binding (phage display)", "setting": "WN-E-D3", "result": "selected by binding to WN-E-D3"}]}
{"sequence": "RCCREPCKEGRKCR [MP-106]", "values": [{"measurement": "selected by binding (phage display)", "setting": "WN-E-D3", "result": "selected by binding to WN-E-D3"}]}
